Source: patent publication US12280047B2, “Treatment of aneurysms” (Georgia State Research Foundation, Inc., priority 2017, dated 2025)

Assays:
ApoE−/− mice [1] = experiment: OMBA, NBA and 1MT treating AngII-induced abdominal aortic aneurysm (Example 15); assay type: in vivo; conditions: for Incidence of AAA: ApoE−/− mice, AngII 1,000 ng/kg/min four weeks, then drug in drinking water 6 weeks, mice with AAA/group size
Experimental: To test the effect of other Kynurenine pathway inhibitors on treating AngII-induced abdominal aortic aneurysm, male ApoE^−/− mice at age 8 weeks were infused with AngII (1,000 ng/kg/min) or saline (0.9% sodium chloride) by Alzet osmotic pumps for four weeks. Four weeks later, Ang-II treated mice were divided into […] groups of 18 and administered o-methoxybenzo ylalanine (OMB), (m-nitrobenzoyl)alanine (NBA), 1-methyltryptophan (1MT) or vehicle control (water) by drinking water for 6 weeks.
To quantify AAA incidence and size, the maximum width of abdominal aorta was measured with Image Pro Plus software (Media Cybernetics). Aneurysm incidence was quantified based on a definition of aneurysm as an external width of the suprarenal aorta that was increased by 50% or greater compared with aortas from saline-infused mice. The average diameter of the normal suprarenal aorta in control mice is 0.8 mm. Therefore, a threshold of 1.22 mm as evidence of aneurysm formation was set. […] Incidence of AAA among the various groups of mice is outlined in FIG. 31A and Table 5 below.

ApoE−/− mice [2] = experiment: Serum kynurenine pathway metabolites in AngII mice treated with OMBA, NBA, 1MT (Example 15); assay type: in vivo
Experimental: The culture medium was centrifuged to pellet the cells to avoid contamination from the cells, and the supernatant was filtered ([…]) before use. Sample preparation for plasma was operated as described previously (Becerra A, et al., Increased activity of indoleamine 2,3-dioxygenase in serum from acutely infected dengue patients linked to gamma interferon antiviral function. J Gen Virol. (2009) 90:810-7; Holmes E W. Determination of serum kynurenine and hepatic tryptophan dioxygenase activity by high-performance liquid chromatography. Anal Biochem. (1988) 172:518-25). 200 μL of plasma was mixed by vortex in a small polyethylene conical tube with 1/10 volume of ice cold 2.4 mol/L perchloric acid. The cloudy suspension was chilled on ice for 15 min and then centrifuged at 10,000 g for 2 min. The clear protein-free supernatant was analyzed directly.
Circ Res. (2014) 114:480-92. Kyn content was estimated along with standards ranging from 0.5-20 μM L-kynurenine (Sigma, K8625), and Trp level was assessed along standards ranging from 1-25 μM DL-Tryptophan (Sigma, 162698), using a GraceVydac C18 column (250×4.6 mm, 5.0 The mobile phase was 20 mM sodium acetate at pH=4.5. The flow rate was 1 ml/min. The column effluent was monitored at 360 nm (Kyn) and 280 nm (Trp) by a UV detector.
3-HAA was measured by HPLC as described previously in Forrest C M, et al., Kynurenine pathway metabolism in patients with osteoporosis after 2 years of drug treatment. Clin Exp Pharmacol Physiol. (2006) 33:1078-87. 3-HAA content was estimated along with standards ranging from 1-200 nM 3-Hydroxyanthranilic acid (Santa Cruz, sc-216460), using a GraceVydac C18 column (250×4.6 mm, 5.0 The mobile phase consisted of 25 mM sodium acetate (pH=5.5) and methanol (90:10 v/v) was pumped at a flow rate of 1 ml/min. Fluorescent detection at excitation 320 nm and emission 420 was used. […]

MMP2 [3] = experiment: MMP2 expression and activity in aortas of 3-HAA-injected mice; assay type: in vivo; conditions: 3-HAA 200 mg/kg/d i.p., 6 weeks; ApoE−/− and ApoE−/−/IDO−/− mice; vs vehicle-treated mice
Experimental: ApoE^−/− and ApoE^−/−/IDO^−/− mice at age 8 weeks on a chow diet were intraperitoneally injected with 3-HAA (200 mg/kg. d) or vehicle for 6 weeks. 3-HAA was dissolved in […] and further diluted in Captisol (Captisol Technology).
Circ Res. (2014) 114:480-92.
The evaluation of MMP activities in cells and aortas was performed as described previously in: Satoh K, et al., Cyclophilin A enhances vascular oxidative stress and the development of angiotensin II-induced aortic aneurysms. Nat Med. (2009) 15:649-56; Becerra A, et al., Increased activity of indoleamine 2,3-dioxygenase in serum from acutely infected dengue patients linked to gamma interferon antiviral function. J Gen Virol. (2009) 90:810-7; Holmes E W. Determination of serum kynurenine and hepatic tryptophan dioxygenase activity by high-performance liquid chromatography. Anal Biochem. (1988) 172:518-25; Forrest C M, et al., Kynurenine pathway metabolism in patients with osteoporosis after 2 years of drug treatment. Clin Exp Pharmacol Physiol. […]
To ascertain the effect of 3-HAA in MMP2 expression in vivo, ApoE^−/− and ApoE^−/−/IDO^−/− mice were intra-peritoneally treated with vehicle or 3-HAA (200 mg/kg/d) for 6 weeks. Corresponding increases in 3-HAA were detected in the plasma (FIG. 6F) and aortas (FIGS. 6D and 6E) of 3-HAA-injected ApoE^−/− and ApoE^−/−/IDO^−/− mice. […]

MMP2 [4] = experiment: MMP2 in isolated mouse aortas incubated with 3-HAA ex vivo; conditions: 400 μM 3-HAA, 48 hours, aortas from ApoE−/− and ApoE−/−/IDO−/− mice
HASMCs = experiment: MMP2 expression and activity in HASMCs incubated with metabolites of Trp degradation; assay type: cell-based, human
Description: J Immunol. […] Neuropharmacology. […] Proc Natl Acad Sci USA.

[5] = concentration- and time-dependent manner

SMILES | aortic weight to body weight ratio (ApoE−/− mice [1]; AngII-administered mice) | maximal abdominal aortic diameter (ApoE−/− mice [1]; AngII-administered mice) | Incidence of AAA (ApoE−/− mice [1]) | Serum levels of tryptophan (ApoE−/− mice [2]; AngII-administered mice, compared to control mice) | Levels of anthranilic acid (serum) (ApoE−/− mice [2]; compared to AngII alone) | Levels of kynurenic acid (serum) (ApoE−/− mice [2]; compared to AngII alone) | MMP2 expression and activity in aortas (MMP2 [3]) | MMP2 expression and activity in isolated aortas (MMP2 [4]) | MMP2 expression and activity (HASMCs; 48 hours, Kyn 100 μM, 3-HK 100 μM, KA 75 μM, AA 100 μM, 3-HAA 200 μM, XA 200 μM, QA 1 mM, immunoblot and zymography) | expression and activity of MMP2 (HASMCs; [5]) | phosphorylation of Elk1 at Ser383 (HASMCs; [5])
COc1ccccc1C(=O)NC(C)C(=O)O (stereo not drawn) [OMBA, o-Methoxybenzoylalanine] | lower | lower | 5/18 | decreased | elevated | elevated | – | – | – | – | –
Nc1c(O)cccc1C(=O)O [3-HAA, 3-Hydroxyanthranilic acid] | – | – | – | – | – | – | remarkably increased | significantly upregulated | dramatic increase | induced | induced
Cn1cc(C[C@H](N)C(=O)O)c2ccccc21 [1MT, 1-methyltryptophan] | – | – | 9/18 | – | – | – | – | – | – | – | –
